From US10604476B2, “Fluorinated amide derivatives and their uses as therapeutic agents” (Trillium Therapeutics Inc., priority 2015, dated 2020)

What was measured:
corneal kindled seizures = test: Corneal kindling mouse model; type: in vivo
Source text: Mice are kindled electrically with 3 sec stimulation, 8 mA, 60 Hz, and corneal electrodes to a criterion of 10 consecutive Stage 5 seizures (facial clonus and head nodding progressing to forelimb clonus, and finally rearing and falling accompanied by a generalized clonic seizure as described by Racine). Stage 5 is generally reached after twice daily stimulation for 8 days. With continued stimulation once a day, animals usually progress to a reproducible Stage 5 after 10-14 additional days. At least 72 hours after the mice have been kindled, the test substance is administered either i.p. or p.o. and, at the previously determined TPE, each animal is given the electrical stimulus indicated above. Following stimulation, the animals are observed for the presence or absence of the rearing and falling criteria of a Stage 5 seizure. Treated animals not displaying a Stage 3, 4, or 5 seizure are considered protected. The dose of the test substance is varied between the limits of 0 and 100% efficacy, and the ED50 and 95% confidence intervals calculated by probit analysis. Mean values and the S.E.M. are calculated for the length of clonus and seizure duration and p values are determined by the Student's t-test.

[1] = test system: lithium pilocarpine-induced status epilepticus; test: Pilocarpine-induced status epilepticus rat model; type: in vivo
Experimental: While most seizures are often short duration events that resolve spontaneously, status epilepticus (SE) events are characterized by continuous epileptic seizures or a series of seizures lasting longer than 30 minutes. Typically, treatment of SE requires emergency room intervention with either diazepam or lorazepam, immediately followed by phenytoin or phenobarbital. However, up to 15% of SE episodes can be refractory to these conventional therapies, thus identifying novel treatments that can be applied in the drug-refractory period, i.e. benzodiazepine-resistant SE, is of critical value to the clinical management of SE. The lithium-pilocarpine model is used to study the effects of a test compound on benzodiazepine-resistant SE. Sprague Dawley rats (n=8 per group; 100-150 g) are injected with lithium chloride (LiCl) solution (127 mg/kg). Animals are then used for the lithium pilocarpine-induced SE test 20-24 hours following LiCl injection. On the day of the test, animals are weighed and then injected with pilocarpine (50 mg/kg; i.p.) before being placed in an observation cage. In the initial convulsive-SE behavioral observation studies, adult rats receive a dose of the investigational compound, which was found in rat MES quantification to produce MMI. […] The ED50 and ED97 in this behavioral assay (30 minute time point) are determined for promising investigational compounds.

cold allodynia = test: Spinal nerve injury (SNI) model, acetone test; type: in vivo, rat
Source text: The SNI model of neuropathic pain was developed in rats using the procedure described by Decostered and Woolf, Pain 2000, 87: 149-158. Under isoflurane anesthesia, the skin on the lateral surface of the thigh was incised and a section was made directly through the biceps femoris muscle exposing the sciatic nerve and its three terminal branches: the sural, common peroneal and tibial nerves. The common peroneal and the tibial nerves were tight-ligated with 6-0 suture and sectioned distal to the ligation, removing 2-4 mm of the distal nerve stump. Extreme care was taken to avoid any contact with or stretching of the intact sural nerve. Following surgery, hemostasis was confirmed and the muscles were sutured in layers using 4-0 suture and the skin was closed with 4-0 suture and metal clips. Cold allodynia was assessed by using the acetone test. In this test, 25 μl of acetone is sprayed on to the plantar surface of the hind paw. Evaporation of acetone causes cooling of the skin. The cold stimulus sets up nociceptive responses from the injured paw as evidenced by paw lifting, paw licking and grooming. The duration of the nociceptive responses is noted.

SMILES	Average Seizure (corneal kindled seizures; 35 mg/kg)	N/F, number of animals active over the number tested (corneal kindled seizures; 35 mg/kg)	Average Seizure (corneal kindled seizures; 70 mg/kg)	N/F, number of animals active over the number tested (corneal kindled seizures; 70 mg/kg)	Average Seizure (corneal kindled seizures; 140 mg/kg)	N/F, number of animals active over the number tested (corneal kindled seizures; 140 mg/kg)	Average Seizure (corneal kindled seizures; 300 mg/kg)	N/F, number of animals active over the number tested (corneal kindled seizures; 300 mg/kg)	ED50 (corneal kindled seizures; Mus musculus, corneal kindled mice, read-out: ED50, reduction of seizure score (seizure severity))	effect in chemically induced SE, administered 30 minutes after the appearance of seizures ([1]; 130 mg/kg)	effect in chemically induced SE, administered at the time of the chemical insult ([1]; time zero, 65 mg/kg)	cold allodynia in the neuropathic rats (cold allodynia)
C[C@@H](Oc1cc(Cl)cc(C(F)(F)F)c1)C(N)=O [I(D), (2R)-2-[3-chloro-5-(trifluoromethyl)-phenoxy]propanamide]	5	0/8	4.6	1/8	2.4	5/8	0.8	8/8	70.4 ± 1 mg/kg	effective	effective	–
NC(=O)COc1cc(C(F)(F)F)cc(C(F)(F)F)c1 [I(F), 2-[3,5 bis(trifluoromethyl)-phenoxy]acetamide;]	–	–	–	–	–	–	–	–	–	–	–	significantly reduced
